Measurements taken from patent US7691387B2, “Cinnamomi and poria composition, method to prepare same and uses thereof” (Jiangsu Kanion Pharmaceutical Co., Ltd, priority 2000, dated 2010).
Read-outs that look alike come from different tables or passages of the source.

How the values were obtained:
[1] = cited from earlier work
[2] = tested on: uterine smooth muscle induced by oxytocin; test: Contraction of uterine smooth muscle induced by oxytocin; set-up: species or system Wister rats; contraction frequency: unit not given here; conditions: for contraction frequency: oxytocin 10 mu/ml alone; for contraction activity / contraction activity, controlling % / contraction frequency, controlling % / contraction range / contraction range, controlling %: oxytocin alone
Method: (§1) Twenty-four hours prior to the experiment, intramuscularly inject non-pregnant female rats with a 0.3 mg/kg weight-dose of Dihydrotheelin. The effect artificially puts them in estrus period so as to increase their sensitivity to the CCP. Decapitate the rats, rapidly paunch, take out the uterus and remove the fat. Cut the uterus in 2 cm of length and put it directly in the homothermic flume with 9 ml of the Locke's solution. One end of the uterus must be fixed on the crotchet of the L shaped ventilating pipe and the other end connected to the Muscle Tension Transducer. Keep the temperature of the homothermic flume at 32° C. Continuously emit oxygen into the fume, at least 60-80 bladders per minute and add in 1 ml of the previous solution with a different concentration. After recording a segment of normal contraction curve, observe the different phases before-and-after administering the drug. Respectively, record the contraction frequency and range. Observe from 1 to 10, 10 to 20, and 20 to 30 minutes before-and-after adding the drug solution. Count the uterine activity, and record data between control groups before-and-after administering the drug.
Observe CCP's effect in smooth muscle contraction of rats' extracorporeal uterine induced by oxytocin. Respectively, record the contraction frequency and range. Observe from 1 to 10, 10 to 20, and 20 to 30 minutes before-and-after adding the drug solution. Count the uterine activity and the inhibitory percentage. Record data as previously done.
Animals' Grouping: randomly divide Wister female rats' extra-corporeal uteruses into normal saline control group (NSG) and CCP's group. The CCP's group is formed by 4 subgroups with seven uteruses each. The dose of CCP's extract is respectively 5.4, 2.7, 1.3, and 0.6 mg/ml.
Results: after adding 10 mu/ml oxytocin to the normal uterine smooth muscle there is an increase of the contraction frequency and the uterine activity. The contraction range is also affected reaching its peak for about 10 min to then stabilize on the level. After 40 minutes, the effect gradually drops. After the oxytocin reacts for 10 minutes, add in a different dose of CCP's extract, and compare the possible differences between the CCP's group and the oxytocin's group. A 5.4, 2.7 mg/ml dose of CCP's extract can control the increase of uterine activity induced by oxytocin, and mainly reduce contraction frequency of uterine smooth muscle (See Table 8 and 13).

golden staphylococcus = conditions: cited from earlier work
streptococcus faecalis = conditions: cited from earlier work
coliform = conditions: cited from earlier work
bacillus subtilis = conditions: cited from earlier work
tinea germ between toes = conditions: cited from earlier work
[3] = tested on: blood pressure of anaesthetized dog; conditions: mainline 80-120 mg/kg; cited from earlier work
[4] = tested on: rheumatism, stomachache, other pains, eczema, dermatitis; conditions: cited from earlier work
[5] = cited from earlier work; remark: listed apart in the source
[6] = tested on: rats' Whole Blood Ratio Viscosity; test: Whole Blood Ratio Viscosity of rats; type: in vivo, Wister rats; conditions: 0.2 g/kg, 5 days
Method: Drug dispensation: put a 12.5 g extract of CCP in a 100 ml solution of normal saline and mix adequately. The drug concentration is 0.125 g/ml (containing 0.5 g/ml of crude drugs). Put a 25 extract of CCP in 100 ml of normal saline. The drug concentration is 0.25 g/ml (containing […] of crude drugs). Put a 50 extract of CCP in a 100 ml of normal saline and mix adequately. The drug concentration is 0.5 g/ml (containing 2 g/ml crude drugs).
Persantine: put 2 in normal saline and mix adequately. The drug concentration will be 20 mg/ml.
Experimental processing: Randomly divide male Wister rats weighing 250 to 300 g into five groups with eight rats in each group. Low, medium and high dose groups can take the extract of CCP in a concentration of 10 ml/kg. The concentration of crude drugs is 5 g/kg, 10.0 g/kg and 20 g/kg respectively. The control group takes normal saline of the same volume; positive medicine group takes 0.2 g/kg, which is 10 ml/kg of persantine. The drug must be administered once a day for five consecutive days. After an hour and a half of administering the drug on the fifth day, lightly anaesthetize the […] with ether. Record 40 test tubes, and put 0.1 ml heparin in each. Take blood from the abdominal aorta of the […] and fill each tube with 1 ml of blood. Then use XN-5 Type Blood Viscometer to determine the Whole Blood Ratio Viscosity.

mice bone marrow cells = test: Micronucleus test; type: in vivo, ICR mouse
Method: 30 mice were randomly divided into 5 groups, each group contained 6 animals. Three of the groups were drug-groups and animals in them were given to CCP by gastric gavage at doses of 2.5 g/kg/day, 1.25 g/kg/day and 0.625 g/kg/day for 2 days. (LD50 of CCP from an acute toxicity test was 5 g/Kg, we adopted a half dose for our study). The fourth group is given to normal saline (0.5 ml/mice) as a negative control group. The last group was given to cyclophosphamide(CP) at 40 mg/Kg via abdominal cavity injection as a positive control group.
Animals were killed 24 hours after administration. Both femurs of the mice were taken for sampling. Femurs were pressed to move out the marrow, with a drop of calf serum added to it, smear the marrow on a plate. After the smeared plate was fixed in the solution of methyl for 10 minutes, it was dyed with the Giemsa's method and observed under the oil lens of a microscope. In the principle of double-blinded study, PCE and MNPCE cells were counted. 1000 PCE and MNPCE cell were counted for each mice, calculated the ratio of micronuclei over the 1000 cells. The ratio of micronuclei represents the dose-effectiveness relation. The data was analyzed with statistical t test.

[7] = tested on: rats' extra-corporeal uterine smooth muscle; test: Contraction of normal rats' extra-corporeal uterine smooth muscle; set-up: species or system Wister rats; conditions: 7 μg/ml
Method: a) Put 5.4g extract of CCP in 100 ml of the Locke's solution and mixed thoroughly. The drug concentration results in 54 mg/ml. Take 1 ml of this solution, put it into a homothermic flume with 9 ml of the Locke's solution. The drug concentration from this mixture contains 5.4 mg/ml. Likewise, put 2.7 g extract of CCP in 100 ml of the Locke's solution and mixed thoroughly. Take 1 ml of this mixture, combine it with 9 ml of Locke's solution and the drug concentration will result in 2.7 mg/ml. Mix up 100 ml of the Locke's solution with a 1.9 g CCP's extract. Take 1 ml of this mixture, combine it with 9 ml of the Locke's solution and the drug concentration will result in 1.9 mg/ml. Mix 200 ml of the Locke's solution with 2.6 of CCP's extract, the concentration will result in 13 mg/ml. Take 1 ml of this mixture, combine it with 9 ml of the Locke's solution which results in a drug concentration of 1.3 mg/ml. Mix 200 ml or 300 ml of the Locke's solution with 1.8 CCP's resulting in a drug concentration of 9 mg/ml and 6 mg/ml respectively. Take 1 ml of this mixture into homothermic flume with 9 ml of the Locke's solution. The result is a drug concentration containing 0.9 mg/ml and 0.6 mg/ml respectively
9.0 of NaCL, 0.42 of KCL, 0.24 of CaCL2, 0.2 of NaHCO3 and 1.0 g of glucose. Mixed with distilled water until obtaining 1000 ml. PH is about 7.
as §1
Animals' Grouping: randomly divide the Wister female rats' extracorporeal uteruses into a normal saline control group (NSG) and a CCP group (CCPG). […]

[8] = cyclophosphamide 40 mg/Kg, per 1000 cells

N#C[C@H](O[C@@H]1O[C@H](CO[C@@H]2O[C@H](CO)[C@@H](O)[C@H](O)[C@H]2O)[C@@H](O)[C@H](O)[C@H]1O)c1ccccc1 [Amygdalin, Benzeneacetonitrile, α-[(6-O-β-D-glucopyranosyl-β-D-glucopyranosyl)oxy]-, (R)—]
volume in which 1 g resolves ([1]; boiling ethanol): 11 mL
volume in which 1 g resolves ([1]; ethanol): 900 mL
volume in which 1 g resolves ([1]; water): 12 mL

CC[C@H](C)[C@@H]1NC(=O)[C@H](Cc2ccc(O)cc2)NC(=O)[C@@H](N)CSSC[C@@H](C(=O)N2CCC[C@H]2C(=O)N[C@@H](CC(C)C)C(=O)NCC(N)=O)NC(=O)[C@H](CC(N)=O)NC(=O)[C@H](CCC(N)=O)NC1=O [Oxytocin]
contraction frequency ([2]; after adm. 1-10 mins): 11.7 ± 1.5
contraction frequency ([2]; after adm. 10-20 mins): 11.6 ± 1.9
contraction frequency ([2]; after adm. 20-30 mins): 10.9 ± 1.17
contraction frequency ([2]; before adm.): 7.0 ± 1.3
contraction activity ([2]; after adm. 1-10 mins): 118.8 ± 77.6%
contraction activity, controlling % ([2]; after adm. 1-10 mins): −108.8%
contraction frequency, controlling % ([2]; after adm. 1-10 mins): −67.1%
contraction range ([2]; after adm. 1-10 mins): 9.7 ± 5.0 mm
contraction range, controlling % ([2]; after adm. 1-10 mins): −21.3%
contraction activity ([2]; after adm. 10-20 mins): 129.6 ± 97.3%
contraction activity, controlling % ([2]; after adm. 10-20 mins): −127.8%
contraction frequency, controlling % ([2]; after adm. 10-20 mins): −65.7%
contraction range ([2]; after adm. 10-20 mins): 10.4 ± 5.7 mm
contraction range, controlling % ([2]; after adm. 10-20 mins): −30.0%
contraction activity ([2]; after adm. 20-30 mins): 111.2 ± 86.5%
contraction activity, controlling % ([2]; after adm. 20-30 mins): −95.4%
contraction frequency, controlling % ([2]; after adm. 20-30 mins): −55.7%
contraction range ([2]; after adm. 20-30 mins): 9.7 ± 6.1 mm
contraction range, controlling % ([2]; after adm. 20-30 mins): −21.3%
contraction activity ([2]; before adm.): 56.9 ± 21.6%
contraction range ([2]; before adm.): 8.0 ± 2.6 mm
contraction range, controlling % ([2]; column Before adm.): 8.8%
contraction activity ([2]; column Oxytocin): 84.7 ± 22.0%
contraction activity, controlling % ([2]; column Oxytocin): −48.9%
contraction frequency, controlling % ([2]; column Oxytocin): −91.4%
contraction range ([2]; column Oxytocin): 7.3 ± 3.2 mm

COc1ccc(C(C)=O)c(O)c1 [Paeonol, Ethanone, 1-(2-hydroxy-4-methoxyphenyl)-]
controlling consistency (golden staphylococcus): 500 µg/mL
controlling consistency (streptococcus faecalis): 500 µg/mL
controlling consistency (coliform): 200 µg/mL
controlling consistency (bacillus subtilis): 200 µg/mL
controlling consistency (tinea germ between toes): 250 µg/mL
duration of reduced pressure [3]: 10 to 12 min
reduce pressure [3]: 41-61%
validity rate ([4]; 261 cases with rheumatoid arthritis, lumbago, bellyache, postoperative & cancer pain): 92%
validity rate ([4]; inject 50˜100 mg, rheumatism, other pains, eczema, dermatitis): 83%
solubility in water [5]: resolve a little in water

OCCN(CCO)c1nc(N2CCCCC2)c2nc(N(CCO)CCO)nc(N3CCCCC3)c2n1 [Persantine]
Whole Blood Ratio Viscosity, high shear [6]: 12.10 ± 1.90
Whole Blood Ratio Viscosity, low shear [6]: 16.12 ± 6.92

O=P1(N(CCCl)CCCl)NCCCO1 (stereo not shown) [Positive control, cyclophosphamide]
number of Micronuclei (mice bone marrow cells; cyclophosphamide 40 mg/Kg abdominal cavity injection, 6000 PCE cells): 381
incidence of micronuclei, Range (mice bone marrow cells; [8]): 43-98
incidence of micronuclei, X ± SD (mice bone marrow cells; [8]): 63.5000 ± 20.6373
incidence of micronucleus (mice bone marrow cells; cyclophosphamide injection 40 mg/Kg): obviously higher than the negative control

Pregnendione [Progestin]
contraction frequency of rats' uterine smooth muscle [7]: can control contraction frequency
contraction frequency ([7]; after adm. 0-20 mins): 6.3 ± 2.5 time/10 mins
contraction activity ([7]; after adm. 1-10 mins): 47.2 ± 22.9%
contraction activity, controlling % ([7]; after adm. 1-10 mins): 31.9%
contraction frequency ([7]; after adm. 1-10 mins): 6.1 ± 2.0 time/10 mins
contraction frequency, controlling percentage ([7]; after adm. 1-10 mins): 23.8%
contraction range ([7]; after adm. 1-10 mins): 7.4 ± 2.3 mm
contraction range, controlling percent ([7]; after adm. 1-10 mins): 14.0%
contraction activity ([7]; after adm. 10-20 mins): 46.3 ± 27.9%
contraction activity, controlling % ([7]; after adm. 10-20 mins): 33.2%
contraction frequency, controlling percentage ([7]; after adm. 10-20 mins): 21.3%
contraction range ([7]; after adm. 10-20 mins): 7.0 ± 2.6 mm
contraction range, controlling percent ([7]; after adm. 10-20 mins): 18.6%
contraction activity ([7]; after adm. 20-30 mins): 35.2 ± 22.5%
contraction activity, controlling % ([7]; after adm. 20-30 mins): 49.2%
contraction frequency ([7]; after adm. 20-30 mins): 5.0 ± 2.4 time/10 mins
contraction frequency, controlling percentage ([7]; after adm. 20-30 mins): 37.5%
contraction range ([7]; after adm. 20-30 mins): 7.0 ± 2.8 mm
contraction range, controlling percent ([7]; after adm. 20-30 mins): 18.6%
contraction activity ([7]; before adm.): 69.3 ± 20.9%
contraction frequency ([7]; before adm.): 8.0 ± 0.8 time/10 mins
contraction range ([7]; before adm.): 8.6 ± 2.2 mm
